Test results published in US12454510B2, “Isophthalamide compound and use thereof” (METISA BIOTECHNOLOGY CO., LTD, priority 2019, dated 2025).
Where two headings read alike, the source gives them in different places.

Columns and labels:
Type in all cases: in vivo
Plutella xylostella = test: Insecticidal activity against Plutella xylostella, airbrush spray on cabbage leaf discs; conditions: foliar, 72 h; for pest or weed control at 5 µg/mL: 5 mg/L, Table 5, read-out: Lethality rate (%, 3 days after the treatment) 5 mg/L
Protocol: (§1) After being dissolved in a mixed solvent of acetone/methanol (1:1), the test compound was diluted with water containing 0.1% (wt) Tween 80 to the desired concentration.
(§2) With Leucania separata, Plutella xylostella, and Chilo suppressalis as targets, airbrush spray method was used for the determination of the insecticidal activity.
(§3) Determination method: Cabbage leaves were punched into leaf discs with a diameter of 2 cm with a puncher, and Airbrush spray treatment was carried out at a pressure of 10 psi (approximately 0.7 kg/cm^2) on the front and back sides of each leaf disc, with a spray volume of the compound to be tested of 0.5 ml. After drying in the shade, 10 of 3rd instar larvae were introduced for each treatment, and each treatment was repeated 3 times for. After the treatment, it was placed in an observation room at 25° C. and a relative humidity of 60-70%, and 3 days after the treatment, the number of surviving insects was investigated, and the mortality rate was calculated.

Chilo suppressalis = test: Insecticidal activity against Chilo suppressalis, sprayed Oryza sativa seedlings/stalks; conditions: for Lethality rate (%, 3 days after the treatment) 1 mg/L / Lethality rate (%, 3 days after the treatment) 10 mg/L / Lethality rate (%, 3 days after the treatment) 0.5 mg/L: parallel comparison test, Table 6; for pest or weed control at 1 µg/mL / pest or weed control at 0.25 µg/mL / pest or weed control at 0.5 µg/mL: Chilo suppressalis, 72 h, 3 days after the treatment, 3rd instar larvae, read-out: lethality rate against Chilo suppressalis; for pest or weed control at 1 µg/mL: dose 1 mg/L; for pest or weed control at 0.25 µg/mL: dose 0.25 mg/L; for pest or weed control at 0.5 µg/mL: dose 0.5 mg/L
Protocol: as §1, §2
Determination method: 1) Preparation of Oryza sativa seedlings: Oryza sativa was cultivated in a constant temperature room (a temperature of 26-28V, a relative humidity of about 60-80%, and a light illumination of 16 hL:8 hD) in a small plastic cup with a diameter of 4.5 cm and a height of 4 cm, and when the Oryza sativa grew up to the 4-5 leaf stage, robust and consistent Oryza sativa seedlings were selected for chemical treatment, and 3 repetitions were performed for each treatment. 2) Preparation for test insects: Chilo suppressalis at 3rd instar larvae were raised continuously indoors. 3) The Oryza sativa stems were sprayed and insects were introduced. Spraying was performed uniformly on the whole plant of the Oryza sativa seedlings, with 15 ml of compound solution for each treatment. The blank control was treated first, and then the above operations were repeated in the order of the test concentration from low to high. After the Oryza sativa seedlings were sprayed, they were placed in a cool place to dry the liquid, and about 5 cm of stalks at the base of the stems were cut and fed to the test insects. A glass petri dish with a diameter of 90 mm was placed with filter paper at the bottom of the dish, and then was moisturized by adding water. After that, about 5 rice stalks and 10 larvae were placed in each dish, and the petri dish was sealed with a non-woven fabric and placed in a constant temperature room for cultivation. The number of remaining live insects was investigated 3 days after the treatment.

Leucania separata = test: Insecticidal activity against Leucania separata, airbrush spray on corn leaf sections; conditions: Mythimna separata, 72 h; dose 0.05 mg/L, 3 days after the treatment, 3rd instar larvae; read-out: lethality rate against Leucania separata
Protocol: as §1, §2
as §3, with “Corn” for “Cabbage”, “cut” for “punched”, “into” for “into leaf discs with a diameter of”, “leaf sections,” for “with a puncher,”, “section,” for “disc,”, “times.” for “times for.”

[1] = 1 mg/L, parallel comparison test, Table 5, read-out: Lethality rate (%, 3 days after the treatment) 1 mg/L
[2] = 0.5 mg/L, parallel comparison test, Table 5, read-out: Lethality rate (%, 3 days after the treatment) 0.5 mg/L
[3] = 0.05 mg/L, parallel comparison test, Table 5, read-out: Lethality rate (%, 3 days after the treatment) 0.05 mg/L
[4] = dose 1 mg/L, 3 days after the treatment, 3rd instar larvae, read-out: lethality rate against Plutella xylostella
[5] = dose 0.05 mg/L, 3 days after the treatment, 3rd instar larvae, read-out: lethality rate against Plutella xylostella
[6] = dose 0.5 mg/L, 3 days after the treatment, 3rd instar larvae, read-out: lethality rate against Plutella xylostella

SMILES | pest or weed control at 1 µg/mL (Plutella xylostella; [1]) [%] | pest or weed control at 5 µg/mL (Plutella xylostella; parallel comparison test) [%] | pest or weed control at 0.5 µg/mL (Plutella xylostella; [2]) [%] | pest or weed control at 0.05 µg/mL (Plutella xylostella; [3]) [%] | pest or weed control at 0.05 µg/mL (Leucania separata) [%] | pest or weed control at 1 µg/mL (Plutella xylostella; [4]) [%] | pest or weed control at 1 µg/mL (Chilo suppressalis) [%] | other results
N#CCCN(C(=O)c1cnccn1)c1cccc(C(=O)Nc2c(Br)cc(C(F)(C(F)(F)F)C(F)(F)F)cc2Br)c1F [CK1, reference compound] | 0 | 66.7 |  |  |  |  |  | Lethality rate (%, 3 days after the treatment) 1 mg/L (Chilo suppressalis): 0%; Lethality rate (%, 3 days after the treatment) 10 mg/L (Chilo suppressalis): 13.33%
N#CCCN(C(=O)c1ccc(Cl)nc1)c1cccc(C(=O)Nc2c(Br)cc(C(F)(C(F)(F)F)C(F)(F)F)cc2Br)c1F [Compound 1-1] | 50 | 93.3 | 6.67 |  |  |  |  | 
N#CCCN(C(=O)c1cccnc1)c1cccc(C(=O)Nc2c(Br)cc(C(F)(C(F)(F)F)C(F)(F)F)cc2Br)c1F [Compound 1-2] | 30 | 90 | 0 |  |  |  |  | Lethality rate (%, 3 days after the treatment) 1 mg/L (Chilo suppressalis): 0%; Lethality rate (%, 3 days after the treatment) 10 mg/L (Chilo suppressalis): 0%
N#CCCN(C(=O)c1ccncc1)c1cccc(C(=O)Nc2c(Br)cc(C(F)(C(F)(F)F)C(F)(F)F)cc2Br)c1F [Compound 1-3] | 76.7 | 100 | 13.3 | 0 |  |  |  | 
N#CCCN(C(=O)c1ccccn1)c1cccc(C(=O)Nc2c(Br)cc(C(F)(C(F)(F)F)C(F)(F)F)cc2Br)c1F [Compound 1-4] | 10 | 60 |  |  |  |  |  | 
N#CCCN(C(=O)c1ccc(F)cn1)c1cccc(C(=O)Nc2c(Br)cc(C(F)(C(F)(F)F)C(F)(F)F)cc2Br)c1F [Compound 1-5] | 60 | 83.3 | 33.3 | 0 |  |  |  | 
N#CCCN(C(=O)c1cnc(F)cn1)c1cccc(C(=O)Nc2c(Br)cc(C(F)(C(F)(F)F)C(F)(F)F)cc2Br)c1F [Compound 1-6] | 60 | 100 | 16.7 | 0 |  |  |  | 
N#CCCN(C(=O)c1cnc(F)nc1)c1cccc(C(=O)Nc2c(Br)cc(C(F)(C(F)(F)F)C(F)(F)F)cc2Br)c1F [Compound 1-7] | 73.3 | 100 | 20 | 0 |  |  |  | 
N#CCN(C(=O)c1ccc(F)nc1)c1cccc(C(=O)Nc2c(Br)cc(C(F)(C(F)(F)F)C(F)(F)F)cc2Br)c1F [Compound 1] |  |  |  |  | ≥ 90 | ≥ 90 | ≥ 90 | 
N#CCCN(C(=O)c1cccnc1)c1cccc(C(=O)Nc2c(Br)cc(C(F)(C(F)(F)F)C(F)(F)F)cc2C(F)(F)F)c1F [Compound 2-1] | 60 | 100 | 20 | 0 |  |  |  | 
N#CCCN(C(=O)c1ccncc1)c1cccc(C(=O)Nc2c(Br)cc(C(F)(C(F)(F)F)C(F)(F)F)cc2C(F)(F)F)c1F [Compound 2-2] | 93.3 | 100 | 30 | 0 |  |  |  | 
N#CCCN(C(=O)c1ccccn1)c1cccc(C(=O)Nc2c(Br)cc(C(F)(C(F)(F)F)C(F)(F)F)cc2C(F)(F)F)c1F [Compound 2-3] | 40 | 100 | 10 | 0 |  |  |  | 
N#CCCN(C(=O)c1ccc(F)cn1)c1cccc(C(=O)Nc2c(Br)cc(C(F)(C(F)(F)F)C(F)(F)F)cc2C(F)(F)F)c1F [Compound 2-4] | 90 | 100 | 63.3 | 33.3 |  |  |  | 
N#CCCN(C(=O)c1cnccn1)c1cccc(C(=O)Nc2c(Br)cc(C(F)(C(F)(F)F)C(F)(F)F)cc2C(F)(F)F)c1F [Compound 2-5] | 50 | 100 | 23.3 | 0 |  |  |  | Lethality rate (%, 3 days after the treatment) 0.5 mg/L (Chilo suppressalis): 0%; Lethality rate (%, 3 days after the treatment) 1 mg/L (Chilo suppressalis): 23.33%; Lethality rate (%, 3 days after the treatment) 10 mg/L (Chilo suppressalis): 70%
N#CCCN(C(=O)c1cnc(F)cn1)c1cccc(C(=O)Nc2c(Br)cc(C(F)(C(F)(F)F)C(F)(F)F)cc2C(F)(F)F)c1F [Compound 2-6] | 90 | 100 | 60 | 20 |  |  |  | 
N#CCCN(C(=O)c1cnc(F)nc1)c1cccc(C(=O)Nc2c(Br)cc(C(F)(C(F)(F)F)C(F)(F)F)cc2C(F)(F)F)c1F [Compound 2-7] | 96.7 | 100 | 53.3 | 0 |  |  |  | 
N#CCCN(C(=O)c1ccc(F)nc1)c1cccc(C(=O)Nc2c(Br)cc(C(F)(C(F)(F)F)C(F)(F)F)cc2Br)c1F [Compound 2] | 100 | 100 | 86.7 | 43.3 | ≥ 90 | ≥ 90 | ≥ 90 | Lethality rate (%, 3 days after the treatment) 0.5 mg/L (Chilo suppressalis): 86.67%; Lethality rate (%, 3 days after the treatment) 1 mg/L (Chilo suppressalis): 100%; Lethality rate (%, 3 days after the treatment) 10 mg/L (Chilo suppressalis): 100%
N#CCCCN(C(=O)c1ccc(F)nc1)c1cccc(C(=O)Nc2c(Br)cc(C(F)(C(F)(F)F)C(F)(F)F)cc2Br)c1F [Compound 3] |  |  |  |  | ≥ 90 | ≥ 90 | ≥ 90 | 
N#CCCCCN(C(=O)c1ccc(F)nc1)c1cccc(C(=O)Nc2c(Br)cc(C(F)(C(F)(F)F)C(F)(F)F)cc2Br)c1F [Compound 4] |  |  |  |  | ≥ 90 | ≥ 90 | ≥ 90 | 
N#CCN(C(=O)c1ccc(F)nc1)c1cccc(C(=O)Nc2c(Br)cc(C(F)(C(F)(F)F)C(F)(F)F)cc2I)c1F [Compound 5] |  |  |  |  | ≥ 90 | ≥ 90 | ≥ 90 | 
N#CCCN(C(=O)c1ccc(F)nc1)c1cccc(C(=O)Nc2c(Br)cc(C(F)(C(F)(F)F)C(F)(F)F)cc2I)c1F [Compound 6] |  |  |  |  | ≥ 90 | ≥ 90 | ≥ 90 | 
N#CCN(C(=O)c1ccc(F)nc1)c1cccc(C(=O)Nc2c(Br)cc(C(F)(C(F)(F)F)C(F)(F)F)cc2C(F)(F)F)c1F [Compound 9] |  |  |  |  | ≥ 90 | ≥ 90 | ≥ 90 | pest or weed control at 0.05 µg/mL (Plutella xylostella; [5]): ≥ 90%; pest or weed control at 0.5 µg/mL (Plutella xylostella; [6]): ≥ 90%; pest or weed control at 0.25 µg/mL (Chilo suppressalis): ≥ 90%; pest or weed control at 0.5 µg/mL (Chilo suppressalis): ≥ 90%
N#CCCN(C(=O)c1ccc(F)nc1)c1cccc(C(=O)Nc2c(Br)cc(C(F)(C(F)(F)F)C(F)(F)F)cc2C(F)(F)F)c1F [Compound 10] | 100 | 100 | 100 | 100 | ≥ 90 | ≥ 90 | ≥ 90 | pest or weed control at 0.05 µg/mL (Plutella xylostella; [5]): ≥ 90%; pest or weed control at 0.5 µg/mL (Plutella xylostella; [6]): ≥ 90%; Lethality rate (%, 3 days after the treatment) 0.5 mg/L (Chilo suppressalis): 100%; Lethality rate (%, 3 days after the treatment) 1 mg/L (Chilo suppressalis): 100%; Lethality rate (%, 3 days after the treatment) 10 mg/L (Chilo suppressalis): 100%; pest or weed control at 0.25 µg/mL (Chilo suppressalis): ≥ 90%; pest or weed control at 0.5 µg/mL (Chilo suppressalis): ≥ 90%
